pIC50: −log10 of the molar value.
Tests used:
[1] = biological target: PTGER2 (EP2) (Homo sapiens (Human), UniProt P43116); assay: hEP2 b-arrestin assay (PathHunter HEK 293 PTGER2 b-arrestin cells); type: cell-based
How it was run: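 HEK293 cells expressing ProLink-tagged EP2 and EA-fused β-arrestin 2 (enzyme fragment complementation) were seeded 24 h, pre-incubated with compound 15 min at 37 °C, then stimulated with 5 μM PGE2 (final) for 120 min.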

[2] = biological target: PTRGER4 (EP4) (Homo sapiens (Human), UniProt P35408); assay: hEP4 b-arrestin assay (PathHunter HEK 293 PTGER4 b-arrestin cells); type: cell-based
PTRGER4 (EP4), sequence (P35408 whole entry, looked up, the tested form may be a part): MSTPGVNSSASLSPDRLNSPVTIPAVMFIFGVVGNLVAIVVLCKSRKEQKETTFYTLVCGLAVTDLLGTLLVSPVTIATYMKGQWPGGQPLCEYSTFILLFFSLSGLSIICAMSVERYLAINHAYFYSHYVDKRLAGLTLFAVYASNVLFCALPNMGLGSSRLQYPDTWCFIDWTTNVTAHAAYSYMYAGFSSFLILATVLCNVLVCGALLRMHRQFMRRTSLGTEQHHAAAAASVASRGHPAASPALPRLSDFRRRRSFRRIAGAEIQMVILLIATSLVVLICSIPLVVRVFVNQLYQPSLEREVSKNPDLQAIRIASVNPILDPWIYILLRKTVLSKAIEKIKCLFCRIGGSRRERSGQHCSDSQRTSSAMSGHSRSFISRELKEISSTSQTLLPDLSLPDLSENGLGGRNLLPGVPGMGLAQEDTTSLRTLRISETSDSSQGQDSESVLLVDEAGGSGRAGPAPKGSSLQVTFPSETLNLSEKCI
How it was run: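 Stably transfected HEK293 cells carrying EP4–ProLink and β-arrestin 2–EA (β-gal fragment complementation), pre-incubated with compound 15 min at 37 °C, then stimulated with PGE2 (20 nM final) for 120 min at 37 °C. Chemiluminescence read after 1 h detection reagent at room temperature; activity per concentration expressed as percent of DMSO control.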

[3] = antagonistic activity on hEP2, mean where measured multiple times
[4] = antagonistic activity on hEP4, mean where measured multiple times
[5] = hEP2 b-arrestin assay (values without asterisk)
[6] = hEP4 b-arrestin assay (values without asterisk)

PTGER2 (EP2), sequence (P43116 whole entry, the tested form may be a part): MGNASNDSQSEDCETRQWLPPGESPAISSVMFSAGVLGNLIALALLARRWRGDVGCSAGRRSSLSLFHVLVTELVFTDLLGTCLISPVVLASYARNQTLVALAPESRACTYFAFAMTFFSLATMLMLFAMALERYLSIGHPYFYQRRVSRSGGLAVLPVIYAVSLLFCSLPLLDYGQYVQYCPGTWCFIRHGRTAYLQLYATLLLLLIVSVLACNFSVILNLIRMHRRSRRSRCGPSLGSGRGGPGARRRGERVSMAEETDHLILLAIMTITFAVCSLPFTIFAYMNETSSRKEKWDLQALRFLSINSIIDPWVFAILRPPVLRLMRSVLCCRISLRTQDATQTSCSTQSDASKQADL

## CSc1cc(-c2cc(NCCn3c(C)cc4c(C)ccc(Cl)c43)ncn2)ccc1C(=O)O [compound 217]
[1]; [3]
  pIC50: 7.60
[2]; [4]
  pIC50: 6.42

## CCCc1cc(-c2cc(NCCn3c(C)cc4c(OC)c(F)cc(F)c43)ncn2)ccc1C(=O)O [compound 373]
[1]; [3]
  pIC50: 7.10
[2]; [4]
  pIC50: 6.74

## CCOc1cc(-c2cc(NCCn3c(C)cc4c(Cl)ccc(Cl)c43)ncn2)ccc1C(=O)O [compound 151, 4-{6-[2-(4,7-Dichloro-2-methyl-indol-1-yl)-ethylamino]-pyrimidin-4-yl}-2-ethoxy-benzoic acid]
[1]; [3]
  pIC50: 8.10
[2]; [4]
  pIC50: 6.09

## COc1ccc(Cl)c2c1cc(C)n2CCNc1cc(-c2ccc3[nH]cnc3c2)ncn1 [compound 56]
[1]; [3]
  pIC50: 6.82
[2]; [4]
  pIC50: 6.16

## CCOc1cc(-c2cc(NCCn3c(C)cc4c(C)ccc(F)c43)ncn2)ccc1CO [compound 124, (2-Ethoxy-4-{6-[2-(7-fluoro-2,4-dimethyl-indol-1-yl)-ethylamino]-pyrimidin-4-yl}-phenyl)-methanol]
[1]; [3]
  pIC50: 8.15
[2]; [4]
  pIC50: 6.82

## CCOc1cc(-c2cc(NCCn3c(C)cc4c(Cl)cc(F)cc43)ncn2)ccc1C(=O)O [compound 280]
[1]; [3]
  pIC50: 7.80
[2]; [4]
  pIC50: 6.19

## CCOc1nc(-c2cc(NCCn3c(C)cc4c(OC)ccc(F)c43)ncn2)sc1C(=O)O [Example 1034, 4-Ethoxy-2-{6-[2-(7-fluoro-4-methoxy-2-methyl-indol-1-yl)-ethylamino]-pyrimidin-4-yl}-thiazole-5-carboxylic acid]
[1]; [5]
  pIC50: 8.30
[2]; [6]
  pIC50: 7.77

## Cc1cc(-c2cc(NCCn3c(C)cc4c(C)ccc(F)c43)ncn2)cc(F)c1C(=O)O [compound 218]
[1]; [3]
  pIC50: 7.74
[2]; [4]
  pIC50: 6.28

## Cc1cc(F)cc2c1cc(C)n2CCNc1cc(-c2ccc3c(c2)CC(=O)N3)ncn1 [compound 61]
[1]; [3]
  pIC50: 7.01
[2]; [4]
  pIC50: 6.29

## COc1cccc2c1cc(C)n2CCNc1cc(-c2ccc(-n3cccn3)cc2)ncn1 [compound 78, [2-(4-Methoxy-2-methyl-indol-1-yl)-ethyl]-[6-(4-pyrazol-1-yl-phenyl)-pyrimidin-4-yl]-amine]
[1]; [3]
  pIC50: 7.70
[2]; [4]
  pIC50: 6.25

## Cc1ccc(F)c2c1cc(C)n2CCNc1cc(-c2ccc3nccnc3c2)ncn1 [compound 55, [2-(7-Fluoro-2,4-dimethyl-indol-1-yl)-ethyl]-(6-quinoxalin-6-yl-pyrimidin-4-yl)-amine]
[1]; [3]
  pIC50: 7.20
[2]; [4]
  pIC50: 6.24

## COc1ccc(F)c2c1cc(C#N)n2CCNc1cc(-c2ccc3nccn3c2)ncn1 [Example 995, 7-Fluoro-1-[2-(6-imidazo[1,2-a]pyridin-6-yl-pyrimidin-4-ylamino)-ethyl]-4-methoxy-1H-indole-2-carbonitrile]
[1]; [5]
  pIC50: 7.89
[2]; [6]
  pIC50: 7.28

## CCOc1cc(-c2cc(NCCn3c(C)cc4cc(C)cc(F)c43)ncn2)ccc1C(=O)O [compound 285]
[1]; [3]
  pIC50: 7.33
[2]; [4]
  pIC50: 6.16

## COc1cccc2c1cc(C#N)n2CCNc1cc(-c2cc(F)c(C(=O)O)s2)ncn1 [Example 902, 5-{6-[2-(2-Cyano-4-methoxy-indol-1-yl)-ethylamino]-pyrimidin-4-yl}-3-fluoro-thiophene-2-carboxylic acid]
[1]; [5]
  pIC50: 8.52
[2]; [6]
  pIC50: 8.10

## Cc1ccc(F)c2c1cc(C)n2CCNc1cc(-c2ccc(-c3ncno3)cc2)ncn1 [compound 79, [2-(7-Fluoro-2,4-dimethyl-indol-1-yl)-ethyl]-[6-(4-[1,2,4]oxadiazol-5-yl-phenyl)-pyrimidin-4-yl]-amine]
[1]; [3]
  pIC50: 7.96
[2]; [4]
  pIC50: 6.71

## CNS(=O)(=O)c1ccc(-c2cc(NCCn3c(C)cc4c(OC)ccc(F)c43)ncn2)cc1C [compound 360]
[1]; [3]
  pIC50: 7.12
[2]; [4]
  pIC50: 6.43

## CNc1cc(-c2cc(NCCn3c(C#N)cc4c(OC)cccc43)ncn2)ccc1C(=O)O [Example 958, 4-{6-[2-(2-Cyano-4-methoxy-indol-1-yl)-ethylamino]-pyrimidin-4-yl}-2-methylamino-benzoic acid]
[1]; [5]
  pIC50: 7.89
[2]; [6]
  pIC50: 7.74

## CCCc1cc(-c2cc(NCCn3c(C)cc4c(CC)ccc(F)c43)ncn2)ccc1C(=O)O [compound 338]
[1]; [3]
  pIC50: 6.07
[2]; [4]
  pIC50: 6.45

## COc1ccc(F)c2c1cc(C)n2CCNc1cc(-c2cc(F)c(S(N)(=O)=O)c(F)c2)ncn1 [compound 359, 2,6-Difluoro-4-{6-[2-(7-fluoro-4-methoxy-2-methyl-indol-1-yl)-ethylamino]-pyrimidin-4-yl}-benzenesulfonamide]
[1]; [3]
  pIC50: 7.47
[2]; [4]
  pIC50: 6.30

## CCCc1cc(-c2cc(NCCn3c(C)cc4cccc(F)c43)ncn2)ccc1C(=O)O [compound 125, 4-{6-[2-(7-Fluoro-2-methyl-indol-1-yl)-ethylamino]-pyrimidin-4-yl}-2-propyl-benzoic acid]
[1]; [3]
  pIC50: 8.10
[2]; [4]
  pIC50: 6.03

## COc1ccc(F)c2c1cc(C)n2CCNc1cc(-c2cc(F)c(C(=O)O)s2)ncn1 [compound 112]
[1]; [3]
  pIC50: 8.40
[2]; [4]
  pIC50: 7.16

## COc1ccc(F)c2c1cc(C)n2CCNc1cc(-c2ccc(S(N)(=O)=O)c(Cl)c2)ncn1 [compound 172]
[1]; [3]
  pIC50: 7.27
[2]; [4]
  pIC50: 6.27

## CCOc1cc(-c2cc(NCCn3c(C)cc4c(C)ccc(F)c43)ncn2)sc1C(=O)O [compound 227]
[1]; [3]
  pIC50: 8.70
[2]; [4]
  pIC50: 7.66

## Cc1cc(F)cc2c1cc(C)n2CCNc1cc(-c2ccc3c(C(=O)O)n[nH]c3c2)ncn1 [compound 183, 6-{6-[2-(6-Fluoro-2,4-dimethyl-indol-1-yl)-ethylamino]-pyrimidin-4-yl}-1H-indazole-3-carboxylic acid]
[1]; [3]
  pIC50: 7.31
[2]; [4]
  pIC50: 6.20

## COc1ccc(F)c2c1cc(C#N)n2CCNc1cc(-c2ccc3c(c2)N(C)C(=O)NC3)ncn1 [Example 919, 7-Fluoro-4-methoxy-1-{2-[6-(1-methyl-2-oxo-1,2,3,4-tetrahydro-quinazolin-7-yl)-pyrimidin-4-ylamino]-ethyl}-1H-indole-2-carbonitrile]
[1]; [5]
  pIC50: 8.00
[2]; [6]
  pIC50: 8.52

## CCNc1cc(-c2cc(NCCn3c(C)cc4ccc(OC)cc43)ncn2)ccc1C(=O)O [compound 170, 2-Ethylamino-4-{6-[2-(6-methoxy-2-methyl-indol-1-yl)-ethylamino]-pyrimidin-4-yl}-benzoic acid]
[1]; [3]
  pIC50: 9.00
[2]; [4]
  pIC50: 6.46

## CCNc1cc(-c2cc(NCCn3c(C)cc4cccc(Cl)c43)ncn2)ccc1C(=O)O [compound 137, 4-{6-[2-(7-Chloro-2-methyl-indol-1-yl)-ethylamino]-pyrimidin-4-yl}-2-ethylamino-benzoic acid]
[1]; [3]
  pIC50: 8.70
[2]; [4]
  pIC50: 6.05

## CCNC(=O)Nc1ccc(-c2cc(NCCn3c(C)cc4c(OC)cccc43)ncn2)cc1OC [compound 375, 1-Ethyl-3-(2-methoxy-4-{6-[2-(4-methoxy-2-methyl-indol-1-yl)-ethylamino]-pyrimidin-4-yl}-phenyl)-urea]
[1]; [3]
  pIC50: 7.70
[2]; [4]
  pIC50: 7.24

## CCC(C)c1cc(-c2cc(NCCn3c(C)cc4c(C)ccc(F)c43)ncn2)ccc1C(=O)O (racemic) [compound 337]
[1]; [3]
  pIC50: 7.05
[2]; [4]
  pIC50: 6.51

## COc1cccc2c1cc(C)n2CCNc1cc(-c2cc(Cl)c(C(=O)O)s2)ncn1 [compound 23, 3-Chloro-5-{6-[2-(4-methoxy-2-methyl-indol-1-yl)-ethylamino]-pyrimidin-4-yl}-thiophene-2-carboxylic acid]
[1]; [3]
  pIC50: 8.52
[2]; [4]
  pIC50: 6.84

## COc1ccc(Cl)c2c1cc(C)n2CCNc1cc(-c2ccc3c(C(=O)O)n[nH]c3c2)ncn1 [compound 388]
[1]; [3]
  pIC50: 7.47
[2]; [4]
  pIC50: 6.02

## Cc1ccc(F)c2c1cc(C)n2CCNc1cc(-c2ccc(-c3ccn[nH]3)cc2)ncn1 [compound 70, [2-(7-Fluoro-2,4-dimethyl-indol-1-yl)-ethyl]-{6-[4-(2H-pyrazol-3-yl)-phenyl]-pyrimidin-4-yl}-amine]
[1]; [3]
  pIC50: 7.48
[2]; [4]
  pIC50: 6.84

## COCCNC(=O)c1ccc(-c2cc(NCCn3c(C#N)cc4c(OC)ccc(F)c43)ncn2)cc1 [Example 996, 4-{6-[2-(2-Cyano-7-fluoro-4-methoxy-indol-1-yl)-ethylamino]-pyrimidin-4-yl}-N-(2-methoxy-ethyl)-benzamide]
[1]; [5]
  pIC50: 7.41
[2]; [6]
  pIC50: 7.00

## COc1ccc(F)c2c1cc(C#N)n2CCNc1cc(-c2ccc(-c3noc(=O)[nH]3)cc2)ncn1 [Example 825]
[1]; [5]
  pIC50: 7.85
[2]; [6]
  pIC50: 8.10

## CCc1cc(-c2cc(NCCn3c(C#N)cc4c(OC)ccc(F)c43)ncn2)ccc1O [Example 822, 1-{2-[6-(3-Ethyl-4-hydroxy-phenyl)-pyrimidin-4-ylamino]-ethyl}-7-fluoro-4-methoxy-1H-indole-2-carbonitrile]
[1]; [5]
  pIC50: 8.22
[2]; [6]
  pIC50: 8.30

## COc1ccc(F)c2c1cc(C)n2CCNc1cc(-c2cc(C)c(C(=O)O)s2)ncn1 [compound 107]
[1]; [3]
  pIC50: 8.30
[2]; [4]
  pIC50: 7.34

## Cc1ccc(F)c2c1cc(C)n2CCNc1cc(-c2ccc(C3(C(=O)O)CC3)c(F)c2)ncn1 [compound 378]
[1]; [3]
  pIC50: 6.47
[2]; [4]
  pIC50: 6.35

## COc1cc(-c2cc(NCCn3c(C)cc4c(OC)ccc(F)c43)ncn2)ccc1C(=O)O [compound 260]
[1]; [3]
  pIC50: 7.55
[2]; [4]
  pIC50: 6.27

## CCCCOc1cc(-c2cc(NCCn3c(C#N)cc4c(OC)ccc(F)c43)ncn2)cc(Cl)c1C(=O)O [Example 906, 2-Butoxy-6-chloro-4-{6-[2-(2-cyano-7-fluoro-4-methoxy-indol-1-yl)-ethylamino]-pyrimidin-4-yl}-benzoic acid]
[1]; [5]
  pIC50: 7.52
[2]; [6]
  pIC50: 8.52

## CCOc1cc(-c2cc(NCCn3c(C)cc4c(OC)ccc(C)c43)ncn2)sc1C(=O)O [compound 261]
[1]; [3]
  pIC50: 7.92
[2]; [4]
  pIC50: 7.15
